This passage reports IC50 results from ChEMBL document CHEMBL4622845, “p62/SQSTM1, a Central but Unexploited Target: Advances in Its Physiological/Pathogenic Functions and Small Molecular Modulators” (J Med Chem, 2020).

SMILES strings stand for the structures. pIC50: −log10 of the molar value. Where a name gives a salt, the structure may show the parent alone.

Data set [1] in a line: Cytotoxicity against RSL3 resistance human HN3 cells assessed as reduction in cell viability. The data set is classed as functional, cell-based.
Data set [2] has as its target T1, Phosphatidylinositol 3-kinase catalytic subunit type 3 (Homo sapiens, UniProt Q8NEB9). The data set is described as follows: Inhibition of Vps34 (unknown origin) interaction with PIK3 assessed as reduction in autophagy by increasing LC3 level.
The target in data set [3] is T1, Phosphatidylinositol 3-kinase catalytic subunit type 3. Nature of the data set: Inhibition of Vps34 (unknown origin).
The target is the same in data set [4]. Nature of the data set: Inhibition of Vps34 in human MCF7-LC3 cells. The data set is classed as cell-based.
A short description of data set [5]: Antitumor activity against human multiple myeloma cells. The data set is classed as functional.
The subject of another data set is NSCLC. The data set is described as follows: Anticancer activity against human NSCLC cells. The format is functional, cell-based.
Data set [6] concerns the target Serine/threonine-protein kinase mTOR (Homo sapiens, UniProt P42345). The data set is described as follows: Inhibition of mTOR in HEK293 cells. The format is cell-based.
Data set [7] addresses T2, UDP-glucuronosyltransferase 1A1 (Homo sapiens, UniProt P22309).
T2 sequence (P22309 whole entry): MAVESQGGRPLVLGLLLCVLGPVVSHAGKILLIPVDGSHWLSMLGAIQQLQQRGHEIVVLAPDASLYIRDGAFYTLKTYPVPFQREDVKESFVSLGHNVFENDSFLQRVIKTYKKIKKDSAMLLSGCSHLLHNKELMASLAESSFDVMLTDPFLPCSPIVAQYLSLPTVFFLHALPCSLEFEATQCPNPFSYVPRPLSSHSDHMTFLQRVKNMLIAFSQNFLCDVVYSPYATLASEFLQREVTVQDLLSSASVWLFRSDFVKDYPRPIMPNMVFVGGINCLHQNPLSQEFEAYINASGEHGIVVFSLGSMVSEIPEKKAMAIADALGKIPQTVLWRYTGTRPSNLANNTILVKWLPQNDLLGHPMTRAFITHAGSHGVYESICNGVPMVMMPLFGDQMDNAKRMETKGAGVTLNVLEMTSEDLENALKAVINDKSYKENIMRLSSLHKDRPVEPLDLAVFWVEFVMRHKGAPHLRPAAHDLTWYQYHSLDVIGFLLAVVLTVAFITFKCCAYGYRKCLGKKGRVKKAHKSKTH
Nature of the data set: Induction of UGT1A1 (unknown origin) assessed as increase in intracellular acidic autophagy vesicles formation. The format is ADME, cell-based.

Another data set deals with CYP450 (Homo sapiens, UniProt P04798+P05177+P05181+P08684+P10632+P10635+P11509+P11712+P13584+P20813+P20815+P20853+P24462+P24903+P33260+P33261+P51589+P78329+P98187+Q02928+Q08477+Q16678+Q16696+Q5TCH4+Q6VVX0+Q7Z449+Q8TAV3+Q96SQ9+Q9HB55). Nature of the data set: Inhibition of CYP450 (unknown origin). The format is ADME, protein assay.
Data set [8] concerns the target T3, DNA polymerase alpha catalytic subunit (Homo sapiens, UniProt P09884).
T3 sequence (P09884 whole entry): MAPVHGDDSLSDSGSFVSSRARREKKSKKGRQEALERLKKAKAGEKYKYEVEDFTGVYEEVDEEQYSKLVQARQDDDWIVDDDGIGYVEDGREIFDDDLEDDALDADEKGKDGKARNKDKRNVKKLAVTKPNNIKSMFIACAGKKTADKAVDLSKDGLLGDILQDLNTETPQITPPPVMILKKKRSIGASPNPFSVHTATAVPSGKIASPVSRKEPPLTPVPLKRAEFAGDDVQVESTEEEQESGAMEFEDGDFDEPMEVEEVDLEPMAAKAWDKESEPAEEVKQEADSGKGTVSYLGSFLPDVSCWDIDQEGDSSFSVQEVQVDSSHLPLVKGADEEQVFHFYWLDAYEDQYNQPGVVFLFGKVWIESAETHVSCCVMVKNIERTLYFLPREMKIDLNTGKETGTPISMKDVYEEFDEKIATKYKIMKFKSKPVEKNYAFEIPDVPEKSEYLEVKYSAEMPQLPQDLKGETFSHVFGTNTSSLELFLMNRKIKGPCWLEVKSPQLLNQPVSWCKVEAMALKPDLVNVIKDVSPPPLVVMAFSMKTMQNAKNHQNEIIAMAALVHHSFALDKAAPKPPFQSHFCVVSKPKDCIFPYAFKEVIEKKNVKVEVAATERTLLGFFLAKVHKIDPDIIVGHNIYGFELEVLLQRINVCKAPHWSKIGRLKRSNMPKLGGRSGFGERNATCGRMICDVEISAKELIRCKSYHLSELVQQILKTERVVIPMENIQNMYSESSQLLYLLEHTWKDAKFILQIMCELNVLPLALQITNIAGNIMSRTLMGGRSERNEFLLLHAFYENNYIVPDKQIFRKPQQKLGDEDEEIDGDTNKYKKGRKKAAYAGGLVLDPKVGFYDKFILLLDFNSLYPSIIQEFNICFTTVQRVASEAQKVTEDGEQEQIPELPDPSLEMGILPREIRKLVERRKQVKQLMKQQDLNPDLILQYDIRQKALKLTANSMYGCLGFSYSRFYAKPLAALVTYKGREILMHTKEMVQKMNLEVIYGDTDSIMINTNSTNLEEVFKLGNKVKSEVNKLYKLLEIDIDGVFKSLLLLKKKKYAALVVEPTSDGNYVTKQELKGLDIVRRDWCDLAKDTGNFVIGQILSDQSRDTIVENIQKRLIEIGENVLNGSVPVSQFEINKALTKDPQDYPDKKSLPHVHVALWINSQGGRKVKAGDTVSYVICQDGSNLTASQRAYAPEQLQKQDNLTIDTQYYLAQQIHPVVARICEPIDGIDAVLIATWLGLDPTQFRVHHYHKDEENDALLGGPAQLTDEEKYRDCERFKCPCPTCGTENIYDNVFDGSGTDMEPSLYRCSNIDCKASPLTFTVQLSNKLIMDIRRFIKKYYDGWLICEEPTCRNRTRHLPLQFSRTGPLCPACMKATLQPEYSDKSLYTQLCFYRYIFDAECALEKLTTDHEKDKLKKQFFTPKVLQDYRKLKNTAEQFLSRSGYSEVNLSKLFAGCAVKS
Nature of the data set: Inhibition of human DNA polymerase-alpha (unknown origin).

T1 sequence (Q8NEB9 whole entry): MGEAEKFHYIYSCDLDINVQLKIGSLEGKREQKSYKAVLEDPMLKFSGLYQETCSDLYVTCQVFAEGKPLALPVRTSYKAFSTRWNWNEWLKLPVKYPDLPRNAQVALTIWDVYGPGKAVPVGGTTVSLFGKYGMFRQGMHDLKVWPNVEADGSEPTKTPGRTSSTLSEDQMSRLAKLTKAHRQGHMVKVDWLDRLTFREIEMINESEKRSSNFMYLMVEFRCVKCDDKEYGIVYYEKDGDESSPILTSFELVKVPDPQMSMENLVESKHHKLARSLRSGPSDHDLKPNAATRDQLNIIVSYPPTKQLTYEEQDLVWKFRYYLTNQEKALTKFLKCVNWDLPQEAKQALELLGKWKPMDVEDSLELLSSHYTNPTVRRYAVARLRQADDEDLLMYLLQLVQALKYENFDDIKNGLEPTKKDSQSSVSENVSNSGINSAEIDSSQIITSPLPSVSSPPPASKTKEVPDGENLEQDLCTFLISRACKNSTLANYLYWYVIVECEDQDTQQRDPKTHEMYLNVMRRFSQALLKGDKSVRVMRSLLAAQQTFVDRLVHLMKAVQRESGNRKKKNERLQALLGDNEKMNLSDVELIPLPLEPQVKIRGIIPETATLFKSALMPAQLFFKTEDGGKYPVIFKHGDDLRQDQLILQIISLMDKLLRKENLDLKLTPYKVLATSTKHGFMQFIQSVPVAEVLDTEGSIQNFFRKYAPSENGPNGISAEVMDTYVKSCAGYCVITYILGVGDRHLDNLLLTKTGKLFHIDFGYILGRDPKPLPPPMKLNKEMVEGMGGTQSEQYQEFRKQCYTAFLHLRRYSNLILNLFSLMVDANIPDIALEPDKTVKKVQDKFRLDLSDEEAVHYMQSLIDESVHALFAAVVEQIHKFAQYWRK

Usually pIC50 stands for the IC50 on a negative log10 scale, so that one unit is a factor of ten. `COc1ccc(N(C(=O)CCl)C(C(=O)NCCc2ccccc2)c2cccs2)cc1Cl` (stereo not given): the figures for the pIC50 in [1], in data set [2] and in data set [3] were 5.24, 7.74 and 7.60, respectively.

As to `Cc1cc(Nc2cc(Cl)nc(Oc3ccc([N+](=O)[O-])cc3)n2)n[nH]1`, in data set [4], the pIC50 was 7.72.

Turning to `OCCNCc1ccc(OCc2ccc(F)cc2)c(OCc2ccc(F)cc2)c1`, the pIC50 in data set [5] is 5.34.

The compound `COc1ccc(S(=O)(=O)Nc2cccnc2Nc2ccc(O)cc2)cc1` [ABT-751] had a pIC50 with NSCLC of 5.82.

Regarding `CO[C@H]1C[C@@H]2CC[C@@H](C)[C@@](O)(O2)C(=O)C(=O)N2CCCC[C@H]2C(=O)O[C@H]([C@H](C)C[C@@H]2CC[C@@H](OCCO)[C@H](OC)C2)CC(=O)[C@H](C)/C=C(\C)[C@@H](O)[C@@H](OC)C(=O)[C@H](C)C[C@H](C)/C=C/C=C/C=C/1C` [EVEROLIMUS], the pIC50 in data set [6] is 8.22 to 8.30.

On to `C=CC(C)(C)c1cc(/C=C/C(=O)c2ccc(O)cc2)c(OC)cc1O` [LICOAGROCHACONE A], for which the pIC50 in data set [7] is 6.01.

Regarding `CCCC(C(=O)OCCN(CC)CC)(c1ccccc1)c1ccccc1` [PROADIFEN HYDROCHLORIDE], the pIC50 against CYP450 is 4.72.

As for `Oc1ccc(/C=C/c2cc(O)cc(O)c2)cc1` [RESVERATROL], in [8], the pIC50 is 5.48.
